# US20220015365A1, “SYNERGISTIC HERBICIDE COMPOSITION OF BROAD-SPECTRUM FOR THE CONTROL OF WEEDS IN AGRICULTURAL CULTURES, USE OF SUCH COMPOSITION FOR PREPARATION OF PRODUCT, PRODUCT AND METHOD OF APPLICATION” (priority 2018, published 2022)
# Columns and labels:
# Brachiaria decumbens = experiment: Pre-emergence weed control in soil prepared with weed seeds, synergy by Colby equation; assay type: in vivo; conditions: 35 days after application
# Method: (§1) Protocol: in soil prepared with weed seeds (without germination), the composition of the present invention was applied. This test was performed for two species of weeds: Brachiaria decumbens and Panicum maximum. Data were collected 35 days after application of the composition to the soil and calculated. […] Colby equation: to use Colby's approach to evaluate synergy or antagonism in combinations, the components of the combination should be tested individually in their concentration of components in the same study as the combination. The results observed for the combination are compared with the expected results of the Colby Equation (Colby, 1967). Note that this equation is derived from the definition of the probability of independence. […] […].2. Criteria of the analysis: • If the value observed is higher than expected (Obs>E): synergy; • If the value observed is lower than expected (Obs<E): antagonism.
# Panicum maximum = experiment: as above; assay type: in vivo; conditions: 35 days after application
# Method: as §1
smiles,measurement,setting,value
"C#CCN1C(=O)COc2cc(F)c(N3C(=O)C4=C(CCCC4)C3=O)cc21 [Flumioxazin, N-(7-Fluor-3,4-dihydro-3-oxo-4-prop-2-inyl-2H-1,4-benzoxazin-6-yl)cyclohex-1-en-1,2-dicarboximide]",Control % BRADC Observed,Brachiaria decumbens; Flumioxazin 47.60 g ai/ha,81.25%
same,Control % BRADC Observed,Brachiaria decumbens; Flumioxazin 103.10 g ai/ha,83.75%
same,Control % BRADC Observed,Brachiaria decumbens; Flumioxazin 176.80 g ai/ha,92.75%
same,Control % BRADC Observed,Brachiaria decumbens; Flumioxazin 380.00 g ai/ha,90.00%
same,Control % PANMA Observed,Panicum maximum; Flumioxazin 24.75 g ai/ha,81.25%
same,Control % PANMA Observed,Panicum maximum; Flumioxazin 33.00 g ai/ha,88.75%
same,Control % PANMA Observed,Panicum maximum; Flumioxazin 47.60 g ai/ha,89.50%
same,Control % PANMA Observed,Panicum maximum; Flumioxazin 63.46 g ai/ha,97.00%
same,Control % PANMA Observed,Panicum maximum; Flumioxazin 103.10 g ai/ha,98.75%
same,Control % PANMA Observed,Panicum maximum; Flumioxazin 137.50 g ai/ha,97.50%
same,Control % PANMA Observed,Panicum maximum; Flumioxazin 176.80 g ai/ha,97.55%
same,Control % PANMA Observed,Panicum maximum; Flumioxazin 235.70 g ai/ha,99.00%
same,Control % PANMA Observed,Panicum maximum; Flumioxazin 380.00 g ai/ha,97.50%
same,Control % PANMA Observed,Panicum maximum; Flumioxazin 507.70 g ai/ha,98.75%
"CC(C)c1nn(C(=O)NC(C)(C)C)c(=O)n1N [Amicarbazone, 4-Amino-N-(tert-butyl)-3-isopropyl-5-oxo-4,5-dihydro-1H-1,2,4-triazole-1-carboxamide]",Control % BRADC Observed,Brachiaria decumbens; Amicarbazone 238.00 g ai/ha,52.50%
same,Control % BRADC Observed,Brachiaria decumbens; Amicarbazone 442.00 g ai/ha,66.25%
same,Control % BRADC Observed,Brachiaria decumbens; Amicarbazone 515.60 g ai/ha,62.50%
same,Control % BRADC Observed,Brachiaria decumbens; Amicarbazone 571.15 g ai/ha,77.50%
same,Control % PANMA Observed,Panicum maximum; Amicarbazone 238.00 g ai/ha,83.25%
same,Control % PANMA Observed,Panicum maximum; Amicarbazone 317.30 g ai/ha,75.00%
same,Control % PANMA Observed,Panicum maximum; Amicarbazone 442.00 g ai/ha,0.00%
same,Control % PANMA Observed,Panicum maximum; Amicarbazone 515.60 g ai/ha,90.00%
same,Control % PANMA Observed,Panicum maximum; Amicarbazone 571.15 g ai/ha,91.25%
same,Control % PANMA Observed,Panicum maximum; Amicarbazone 589.30 g ai/ha,90.00%
same,Control % PANMA Observed,Panicum maximum; Amicarbazone 594.00 g ai/ha,86.25%
same,Control % PANMA Observed,Panicum maximum; Amicarbazone 687.50 g ai/ha,95.00%
same,Control % PANMA Observed,Panicum maximum; Amicarbazone 761.54 g ai/ha,98.25%
same,Control % PANMA Observed,Panicum maximum; Amicarbazone 792.00 g ai/ha,88.75%
